Assay [1] has as its target T1, pVHL19 (Homo sapiens, UniProt P40337). Also on record: made in house; method as in PMID 25166285. The settings on record: ITC, ref [18]; cited from earlier work.
Target sequence in this assay (P40337 54-213): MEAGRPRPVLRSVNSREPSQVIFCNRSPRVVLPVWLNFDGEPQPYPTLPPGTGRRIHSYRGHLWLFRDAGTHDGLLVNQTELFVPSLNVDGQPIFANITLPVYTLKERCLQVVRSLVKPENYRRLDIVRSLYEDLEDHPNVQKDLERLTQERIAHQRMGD
Target sequence in this assay (Q15369 17-112 partner limits assumed): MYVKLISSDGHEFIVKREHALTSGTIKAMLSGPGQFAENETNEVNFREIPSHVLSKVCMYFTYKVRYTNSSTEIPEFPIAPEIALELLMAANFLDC
Target sequence in this assay (Q15370 1-104 partner limits assumed): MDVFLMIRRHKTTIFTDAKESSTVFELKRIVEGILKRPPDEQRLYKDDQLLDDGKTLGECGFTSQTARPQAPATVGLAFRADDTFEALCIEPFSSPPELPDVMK
For assay [2], the target named is T1, pVHL19. Description: Immunoblot of pVHL19 protein level in HeLa cells after compound treatment. Also on record: endogenous in cells; host or cells: HeLa. To be noted: 10 h, read-out: pVHL19 band quantification normalized to 0.1% DMSO. The class given is cell-based. How it is done: (§1) Cell culture. Human cell lines HeLa, U2OS and HEK 293, purchased from ATCC, were propagated in DMEM supplemented with 10% fetal bovine serum (FBS), L- glutamine, 100 μg ml^−1 of penicillin/streptomycin at 37 °C and 5% CO2. Cells were maintained for no more than 30 passages. All cell lines were routinely tested for mycoplasma contamination using MycoAlert kit from Lonza. For compound treatment experiments, cells were transferred in six-well plates with either 3 × 10^5 or 5 × 10^5 cells per well in 2 ml of media. At 80% confluence, cells were treated with compounds at the desired concentration, reaching final DMSO concentration of 0.1% v/v. Cells were incubated at 37 °C and 5% CO2 for the desired time before harvesting.
(§2) Immunoblotting. Cells were lysed in lysis buffer (20 mM Tris pH 8, 150 mM NaCl, 1% Triton × 100) and a protease inhibitor cocktail (Roche) per 10 ml buffer. For protein extracts, the dishes were placed on ice. The media was aspirated and the tissue layer washed twice with ice-cold phosphate buffer saline (PBS). Lysis buffer (120 μl) was added and the cells detached from the surface with a cell scraper. After removal of the insoluble fraction by centrifugation, the protein concentration of the supernatant was determined by Pierce™ Coomassie (Bradford) Protein Assay Kit. Protein extracts were fractionated by SDS-PAGE on 4–12% Tris-Acetate NuPage® Novex® (Life Technologies) polyacrylamide gels and transferred to a nitrocellulose membrane using wet transfer. The membrane was then blocked with 5 % w/v Bovine serum albumin (BSA) in Tris-buffered saline (TBS) with 0.1% w/v Tween-20. For detecting proteins the following primary antibodies in the given concentrations were used: anti-β-Actin (Cell Signaling Technology, 4970S, 13E5) 1:2000, anti-VHL (Cell Signaling Technology, #68547) 1:1000, anti-Hif-1α (BD Biosciences, 610959, clone 54) 1:1,000, anti-hydroxy-HIF-1α (Hyp564) (Cell Signaling Techonology; #3434) 1:1,000, anti-PHD2 (Bethyl Laboratories; A300-322A) 1:1,000, anti-PHD3 (Bethyl Laboratories; A300-327A) 1:1000, anti-CRBN (Proteintech; 11435-1-AP) 1:1,000. Following incubation with a horseradish peroxidase-conjugated secondary antibody (Cell Signaling Technology), the signal was developed using enhanced chemiluminescence (ECL) Western Blotting Detection Kit (Amersham) on Amersham Hyperfilm ECL film (Amersham). Band quantification was performed using ImageJ software and reported as relative amount as ratio of the each protein band relative to the lane’s loading control. The values obtained were then normalized to 0.1% DMSO vehicle control. See Supplementary Fig. 12 for full-scanned images of western-blots shown in the main text figures.
Target sequence in this assay (P40337 54-213): as the sequence (P40337 54-213) above
Target sequence in this assay (Q15369 whole entry partner): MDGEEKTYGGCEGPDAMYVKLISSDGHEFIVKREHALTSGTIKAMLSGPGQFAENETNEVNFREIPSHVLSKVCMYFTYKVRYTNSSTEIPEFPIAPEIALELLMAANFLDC
Target sequence in this assay (Q15370 whole entry partner): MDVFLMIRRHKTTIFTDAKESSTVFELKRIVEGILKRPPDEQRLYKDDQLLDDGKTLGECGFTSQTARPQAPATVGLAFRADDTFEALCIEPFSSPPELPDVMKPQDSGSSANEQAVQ

Another assay relates to HIF-1α. Briefly: TMT MS proteomics in HeLa cells, HIF-1α level. The class given is cell-based, Human. The settings on record: 150 µM, 10 h. As to the method:
MS proteomics. Sample preparation. HeLa cells were seeded at 5 × 10^6 on a 10 cm plate 16 h before treatment. […] Cells were incubated at 37 °C and 5% CO2 for 10 h before harvesting. Cells were placed on ice and medium was removed and cells were washed twice with cold PBS. Cells were lysed in 0.5 ml of 100 mM Tris pH 8.0, 4% (w/v) SDS supplemented with protease inhibitor cocktail (Roche). The lysate was pulse sonicated briefly and then centrifuged at 17,000 × g for 15 min at 4 °C. The supernatant fraction of cell extract was snap-frozen in liquid nitrogen and stored in −80 °C freezer. Further sample processing, digestion, desalting, labeling and fractionation were performed as previously described.
nLC-MS/MS analysis. The TMT 10plex fractions were first analyzed as previously described. Briefly, the TMT 10plex fractions were analyzed sequentially on a Q Exactive HF Hybrid Quadrupole-Orbitrap Mass Spectrometer (Thermo Scientific) coupled to an UltiMate 3000 RSLCnano UHPLC system (Thermo Scientific) and EasySpray column (75 μm × 50 cm, PepMap RSLC C18 column, 2 μm, 100 Å, Thermo Scientific). The MS2 isolation window was set to 0.4 Da and the resolution set at 120,000. MS2 resolution was set at 60,000. […] After the first analysis, the TMT labeled fractions were re-analyzed on the Q-Exactive HF using the same instrument settings and a target list generated from a theoretical trypsin digest of VHL. […]

In another assay the test system is Hdy-HIF-1α. Description: Immunoblot of HIF-1α / hydroxylated HIF-1α levels in HeLa cells. The class given is cell-based, Human. How it is done: as §1, §2
The target in the next assay is pVHL30 (Homo sapiens, UniProt P40337). Briefly: Immunoblot of pVHL30 protein level in HeLa cells after compound treatment. The settings on record: 10 h, read-out: pVHL30 band quantification normalized to 0.1% DMSO. The class given is cell-based. Also on record: endogenous in cells; host or cells: HeLa. As to the method: as §1, §2
Chain of pVHL30 (P40337 whole entry): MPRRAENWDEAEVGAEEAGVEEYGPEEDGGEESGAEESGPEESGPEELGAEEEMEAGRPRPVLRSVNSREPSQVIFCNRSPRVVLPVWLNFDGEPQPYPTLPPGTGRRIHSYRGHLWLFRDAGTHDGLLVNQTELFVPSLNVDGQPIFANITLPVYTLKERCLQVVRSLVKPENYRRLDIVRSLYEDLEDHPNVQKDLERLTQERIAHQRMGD

The structures appear in SMILES notation.

For the molecule `CC(=O)N[C@H](C(=O)N1C[C@H](O)C[C@H]1C(=O)NCc1ccc(-c2scnc2C)cc1)C(C)(C)C` [VH032, reference compound], at pVHL19 [1], the ΔG result is given as “–9.17 ± 0.02 kcal mol^−1”, the ΔH result is on record as “–5.53 ± 0.01 kcal mol^−1” and the “−TΔS” value is “–3.65 ± 0.02 kcal mol^−1”. In addition, the remaining activity at 150 µM at pVHL19 [2] was 113%. In addition, the “protein levels of HIF-1α” value in the assay with HIF-1α is reported as “increased”. For the same molecule, in the assay on Hdy-HIF-1α (HeLa, 1 µM), the “effect on HIF-1α at 1 µM” value is “completely ineffective”. For the same molecule, the “concentration at which active in cells” value with Hdy-HIF-1α (inhibitory concentration of the ligand alone in cells) was ~ 100 µM. Moreover, the remaining pVHL30 protein level at 150 µM on pVHL30 worked out at 127%.

These data come from PMC5635026, “Homo-PROTACs: bivalent small-molecule dimerizers of the VHL E3 ubiquitin ligase to induce self-degradation” (Nature Communications, 2017).
